Laboratory results published in patent US20160346255A1, “METHODS, AGENTS AND COMPOSITIONS FOR TREATMENT OF INFLAMMATORY CONDITIONS” (Betanien Hospital, priority 2014, published 2016).
Non-standard residues stand in square brackets, D forms with d. Residues, ends and D or L forms follow the SMILES beside them. *: point of attachment. dPhe(4-NHCONH2) = NC(=O)Nc1ccc(C[C@@H](N)C(=O)O)cc1; Dihydroorotyl(S) = O=C1C[C@@H](C(=O)*)NC(=O)N1; dPhe(4-Cl) = N[C@H](Cc1ccc(Cl)cc1)C(=O)O; Phe(4-NH2) = Nc1ccc(C[C@H](N)C(=O)O)cc1; d2Nal = N[C@H](Cc1ccc2ccccc2c1)C(=O)O; Lys(iPr) = CC(C)NCCCC[C@H](N)C(=O)O; d3Pal = N[C@H](Cc1cccnc1)C(=O)O

How the values were obtained:
Type in all cases: in vivo, human
[1] = system: Patients with Rheumatoid Arthritis; experiment: Rheumatoid arthritis patients treated with degarelix: laboratory variables; set-up: LH: unit not given beside the values
Source text: [table] […] Examples of Patients with Continued RA Improvement Over Several Weeks Despite Stably Low Levels of LH

[2] = system: patients 1 and 2 (rheumatoid arthritis); experiment: Hip bone mineral density in patients taking a GnRH antagonist
Source text: However, our data indicates the opposite.

[3] = system: Patient with Inflammatory Bowel Disease; experiment: Inflammatory bowel disease (colitis) patient treated with degarelix
Procedure: • person, diagnosed with colitis • Inflammatory bowel disease, colitis verified on colonic biopsy sample. Patients with inflammatory colitis usually have a higher incidence of autoimmune diseases. This patient also had ankylosing spondylitis. • September 2014 received first dose of degarelix 240 mg s.c. • Received degarelix 80 mg s.c. approximately every two weeks thereafter. • The inflammatory bowel diseases (IBDs), Crohn's disease and ulcerative colitis, are chronic relapsing, remitting disorders. The assessment of disease activity presents challenges to clinicians. Fecal biomarkers, such as fecal calprotectin, are a non-invasive method which can be used to aid managing clinicians. Calprotectin is released extracellularly in times of cell stress or damage and can be detected within feces and thus be used as a sensitive marker of intestinal inflammation. […] Fecal calprotectin levels are elevated in patients with both Crohn's disease and ulcerative colitis (1-2). There have been several studies looking at the use of fecal calprotectin to predict or monitor response to treatment. • In a study looking at 11 patients with relapsing IBD, fecal calprotectin was analysed at inclusion and after 8 weeks of treatment. Treatment was individualized medical therapy. A normalized fecal calprotectin concentration at 8 weeks predicted a complete response in 100% of patients (3), corresponding to endoscopic mucosal healing (4). It has been shown that in patients with steroid induced clinical remission fecal calprotectin levels can remain elevated (5-6). […] A level of <50 mg/kg is considered normal or remission for IBD. • There is no gold standard index in the measurement of colitis disease activity in clinical trials. Due to the invasive nature of endoscopies, the Mayo non-invasive colitis assessment of response score can be used to assess treatment effect of IBD in clinical trials (9-11). […] Both the partial Mayo and total Mayo score are used to assess disease activity in clinical trials (13). The partial Mayo score also had good discriminatory value between subjects in remission and those with active disease (14). A clinical response has been defined as a 3 point or greater change in the partial Mayo score (15).

[4] = system: Patient with Spondyloarthritis; experiment: Spondyloarthritis patient treated with degarelix; settings: for BASDAI: baseline 3.8
Procedure: • person, diagnosed with spondyloarthritis • Fulfilled the ASAS criteria for axial radiographic spondyloarthritis. • October 2014 received first dose of degarelix, 240 mg s.c. • Received degarelix 80 mg s.c. every two weeks thereafter. Disease activity in ankylosing spondylitis/spondyloarthritis is measured by the BASDAI (Bath Ankylosing Spondylitis Disease Activity Index (1)), has been extensively validated in clinical trials (2-3), and is one of the most commonly used outcome measures in clinical trials. This is a composite index that evaluates fatigue, axial and peripheral pain, stiffness and enthesopathy. Their BASDAI was at 3.8 at baseline. In October 2014 they received their first dose of degarelix 240 mg s.c. By 2 weeks, their BASDAI had reduced to 2.9, and by 8 weeks it had reduced to 1.3, remission. At 4 months, their BASDAI continues to be low at 1.5. • Response to therapy in clinical practice is defined as improvement of 2 units or 50% on a 0-10 scale of the BASDAI, and expert opinion that the treatment should be continued. Their reduction by 4 months was 2.3. We shall continue treatment.

Compound: CC(=O)N[C@H](Cc1ccc2ccccc2c1)C(=O)N[C@H](Cc1ccc(Cl)cc1)C(=O)N[C@H](Cc1cccnc1)C(=O)N[C@@H](CO)C(=O)N[C@@H](Cc1ccc(NC(=O)[C@@H]2CC(=O)NC(=O)N2)cc1)C(=O)N[C@H](Cc1ccc(NC(N)=O)cc1)C(=O)N[C@@H](CC(C)C)C(=O)N[C@@H](CCCCNC(C)C)C(=O)N1CCC[C@H]1C(=O)N[C@H](C)C(N)=O [degarelix] (Ac-[d2Nal][dPhe(4-Cl)][d3Pal]S[Phe(4-NH2)](Dihydroorotyl(S))[dPhe(4-NHCONH2)]L[Lys(iPr)]P[dA]-NH2)
- HbA1c (4.3-6.1), final ([1]; Patient 1, by 24 wks, baseline 6.4, * normalized): 6.4, 6.1*
- Rheumatoid factor (<14), final ([1]; Patient 1, by 24 wks, baseline 7): 7, 9
- LH, final ([1]; Patient 1, by 24 wks, baseline 22): 22, <0.
- FSH, final ([1]; Patient 1, by 24 wks, baseline 38): 38, 1
- ESR (erythrocyte sedimentation rate), final ([1]; Patient 1, by 24 wks, baseline 46, * normalized): 46, 24 *
- CRP (<5), final ([1]; Patient 1, by 24 wks, baseline 63): 63, 16
- Blood Pressure, final ([1]; Patient 1, by 24 wks, baseline 151/90, * normalized): 151/90, 120/71 *
- CCP antibody (<10), final ([1]; Patient 1, by 24 wks, baseline NEG): NEG, NEG
- HbA1c (4.3-6.1), final ([1]; Patient 2, by 15 wks, baseline 5.3): 5.3, 5.3
- LH, final ([1]; Patient 2, by 15 wks, baseline 36): 36, <0.3
- CRP (<5), final ([1]; Patient 2, by 15 wks, baseline 44): 44, 23
- Rheumatoid factor (<14), final ([1]; Patient 2, by 15 wks, baseline 51): 51, 38
- ESR (erythrocyte sedimentation rate), final ([1]; Patient 2, by 15 wks, baseline 51, * normalized): 51, 16*
- FSH, final ([1]; Patient 2, by 15 wks, baseline 72): 72, 0.4
- CCP antibody (<10), final ([1]; Patient 2, by 15 wks, baseline 101): 101, 70
- Blood Pressure, final ([1]; Patient 2, by 15 wks, baseline 118/82): 118/82, 126/80
- LH ([1]; Patient 3, 4 wks, baseline 2): <0.3
- ESR ([1]; Patient 3, 4 wks, baseline 46): 41
- LH ([1]; Patient 3, 8 wks, baseline 2): <0.3
- ESR ([1]; Patient 3, 8 wks, baseline 46): 36
- LH ([1]; Patient 3, 12 wks, baseline 2): <0.3
- ESR ([1]; Patient 3, 12 wks, baseline 46): 20
- LH, final ([1]; Patient 3, by 12 wks, baseline 2): 2, >0.3
- HbA1c (4.3-6.1), final ([1]; Patient 3, by 12 wks, baseline 5.1): 5.1, 5.4
- FSH, final ([1]; Patient 3, by 12 wks, baseline 6): 6, 1
- CRP (<5), final ([1]; Patient 3, by 12 wks, baseline 33): 33, 19
- ESR (erythrocyte sedimentation rate), final ([1]; Patient 3, by 12 wks, baseline 46, * normalized): 46, 20 *
- CCP antibody (<10), final ([1]; Patient 3, by 12 wks, baseline 102): 102, 101
- Blood Pressure, final ([1]; Patient 3, by 12 wks, baseline 110/68): 110/68; 110/66
- Rheumatoid factor (<14), final ([1]; Patient 3, by 12 wks, baseline 178): 178, 163
- LH ([1]; Patient 4, 3½ wks, baseline 8): <0.3
- ESR ([1]; Patient 4, 3½ wks, baseline 78): 68
- LH ([1]; Patient 4, 9 wks, baseline 8): <0.3
- ESR ([1]; Patient 4, 9 wks, baseline 78): 36
- HbA1c (4.3-6.1), final ([1]; Patient 4, by 9 wks, baseline 6.9): 6.9, 6.4
- LH, final ([1]; Patient 4, by 9 wks, baseline 8): 8, <0.3
- FSH, final ([1]; Patient 4, by 9 wks, baseline 15, * normalized): 15, 0.7*
- ESR (erythrocyte sedimentation rate), final ([1]; Patient 4, by 9 wks, baseline 78): 78, 36
- Blood Pressure, final ([1]; Patient 4, by 9 wks, baseline 130/80): 130/80; 120/78
- CRP (<5), final ([1]; Patient 4, by 9 wks, baseline 142): 142, 56
- Rheumatoid factor (<14), final ([1]; Patient 4, by 9 wks, baseline >200, above limit): >200, >200
- CCP antibody (<10), final ([1]; Patient 4, by 9 wks, baseline >340, above limit): >340, >340
- HbA1c (4.3-6.1), final ([1]; Patient 5, by 7 wks, baseline 5.1): 5.1, 5.5
- ESR (erythrocyte sedimentation rate), final ([1]; Patient 5, by 7 wks, baseline 28): 28, 8
- LH, final ([1]; Patient 5, by 7 wks, baseline 44): 44, <0.3
- FSH, final ([1]; Patient 5, by 7 wks, baseline 64): 64, <0.1
- Blood Pressure, final ([1]; Patient 5, by 7 wks, baseline 134/79): 134/79; 124/80
- Rheumatoid factor (<14), final ([1]; Patient 5, by 7 wks, baseline 167): 167, >200
- CCP antibody (<10), final ([1]; Patient 5, by 7 wks, baseline 257): 257, 235
- CRP (<5), final ([1]; Patient 5, by 7 wks, baseline <5): <5, 6
- HbA1c (4.3-6.1), final ([1]; Patient 6, by 3 ½ wks, baseline 5.5): 5.5, 5.4
- Rheumatoid factor (<14), final ([1]; Patient 6, by 3 ½ wks, baseline 8): 8, 8
- CRP (<5), final ([1]; Patient 6, by 3 ½ wks, baseline 22, * normalized): 22, <5*
- LH, final ([1]; Patient 6, by 3 ½ wks, baseline 30): 30, <0.3
- ESR (erythrocyte sedimentation rate), final ([1]; Patient 6, by 3 ½ wks, baseline 37, * normalized): 37, 24*
- FSH, final ([1]; Patient 6, by 3 ½ wks, baseline 79): 79, 0.6
- Blood Pressure, final ([1]; Patient 6, by 3 ½ wks, baseline 90/60): 90/60; 100/64
- CCP antibody (<10), final ([1]; Patient 6, by 3 ½ wks, baseline NEG): NEG, NEG
- Bone mineral density in hips ([2]; Patient 1, first time in 3.5 years, no osteoporosis therapy (FIG. 9)): improvement
- Bone mineral density in hips ([2]; Patient 2, first time in 4.5 years (FIG. 10)): improvement
- Fecal calprotectin (<50 normal) ([3]; 2 Oct. 2014, normal): 48, normal mg/kg
- Fecal calprotectin (<50 normal) ([3]; 10 Jan. 2015, normal): 32, normal mg/kg
- Fecal calprotectin (<50 normal) ([3]; 24 Sep. 2014 (started 10.09.14), high): 79, high mg/kg
- Partial Mayo score ([3]; at 12 weeks, baseline 3): 0
- BASDAI ([4]; at 4 months): 1.5
- BASDAI ([4]; by 2 weeks): 2.9
- BASDAI reduction ([4]; by 4 months): 2.3
- BASDAI ([4]; by 8 weeks, remission): 1.3
